This assay has as its system MIA PaCa-2 pancreatic cancer cell line. Kind of assay: Cell proliferation assay (DAPI). It is filed as cell-based. The settings on record: Homo sapiens; for inhibition at 10 µM: read-out: % Inhibition of cell proliferation, MIA PaCa-2 % inh. As for the experimental part: Cell lines: Human NSCLC cells NCI-H1975 and NCI-H1299, and tumor-derived pancreatic cancer cell lines Panc-1, MIA-PACA2, and BxPC3, were all purchased from American Type Culture Collection and grown in complete RPMI medium (BxPC3, NCI-H1975 and NCI-H1299) or DMEM-High Glucose (Panc1 and MIA-PaCa-2), supplemented with penicillin (100 U/mL), streptomycin (100 μg/mL), and 10% heat-inactivated FBS at 37° C. in a humidified incubator with 5% CO2.
Method: Cells were plated at 2000 to 5000 cells/well density in 96-wells plate and cultured ON. Small molecules to be tested were added to the cells in the final concentration of 10 µM in the presence of 0.3% DMSO and 10% FBS, and incubated for 2-4 days at 37° C. in a humidified incubator with 5% CO2. For IC50 value determination, serial dilutions of compounds were added to cells under the same conditions.
Assay: At the end of the incubation period, cell cultures were fixed with a 50-50 mixture (v/v) acetone-methanol for 10 minutes at −20° C., followed by rehydration in PBS for 10 minutes at room temperature. DNA total content was determined by staining cells with DAPI (1 ug/ml) in PBS for 10 minutes at room temperature, followed by 3 washes with PBS. After staining, DAPI fluorescence was recorded (358 nm excitation/461 nm emission) with the 96-well plate reader Molecular Devices Spectramax M3; degree of small molecule-dependent proliferation inhibition was calculated from raw data.

The results in this text go back to US20250296938A1, “Compounds that Interact with the Ras Superfamily for the Treatment of Cancers, Inflammatory Diseases, Rasopathies, and Fibrotic Disease” (SHY Therapeutics, LLC, priority 2018, published 2025).

Structures are written as SMILES. Read-outs that look alike come from different tables or passages of the source.

As usually defined, the IC50 is the concentration at which inhibition is half-maximal. Read a high IC50 as weaker potency.

With `COc1ccc(-c2sc3nc(-c4nccn4C)nc(N4CCC(OC)C4)c3c2-c2ccccc2)cn1` (stereo not drawn) [drawing 572], under “2-4 days, MIA PaCa-2”, the inhibition at 10 µM lay within 76 to 100%.
Still for that read-out and setting: in the case of `O=C(c1nc(-c2ccccn2)nc(O)c1O)N1CCOCC1` [drawing 595] it was 0%.
`COc1cccc(-c2sc3nc(-c4nccn4C)nc(N4CCC(OC)C4)c3c2-c2cscn2)c1` (stereo not drawn) [drawing 559]: the IC50 (MIA PaCa-2) is over 1 µM. Also, the inhibition at 10 µM (2-4 days, MIA PaCa-2) lay in the range of 76 to 100%.
With `CO[C@H]1C[C@@H](Nc2nc(-c3nccn3C)nc3sc(-c4ccn(C)n4)c(C)c23)C1` [drawing 649], where the note is “MIA PaCa-2 (Table 5A)”, the inhibition at 10 µM lay within 76 to 100% and the IC50 is over 1 µM.
As for `O=C(c1nc(-c2ccccn2)nc(O)c1O)N1CCCC1` [drawing 598], the inhibition at 10 µM (2-4 days, MIA PaCa-2) was in the range of 1 to 25%.
`COC(=O)c1nc(-c2nccn2C)nc(O)c1O` [drawing 610]: the inhibition at 10 µM (2-4 days, MIA PaCa-2) was 0%.
For `CO[C@H]1C[C@@H](Nc2nc(-c3nccn3C)nc3sc(-c4cnn(C)c4)c(-c4ccccc4)c23)C1` [drawing 627], under “MIA PaCa-2 (Table 5A)”, the inhibition at 10 µM is 76 to 100% and the IC50 was in the range of 0.75 to 1 µM.
On the same counts, the results for `COc1cccc(-c2sc3nc(-c4nc(C)cn4C)nc(N[C@@H]4CC[C@H](OC)C4)c3c2C)c1F` [drawing 631] are 76 to 100% and 0.75 to 1 µM.
Consider `COC1CCN(c2nc(-c3nccn3C)nc3sc(-c4ccccc4Cl)c(-c4cscn4)c23)C1` (stereo not drawn) [drawing 557], for which the inhibition at 10 µM (2-4 days, MIA PaCa-2) was 76 to 100%.
Still for that read-out and setting: in the case of `COc1c(O)nc(-c2ccccn2)nc1Oc1cnn(C)c1` [drawing 587] it was 0%.
Consider `CO[C@H]1CC[C@@H](Nc2nc(-c3nccn3C)nc3sc(C(=O)N4CCOCC4)c(-c4ccccc4)c23)C1` [drawing 662], for which, under “MIA PaCa-2 (Table 5A)”, the inhibition at 10 µM lay in the range of 51 to 75% and the IC50 was over 1 µM.
Turning to `COCCN(C)C(=O)c1nc(-c2ccccn2)nc(O)c1O` [drawing 602], for the setting “2-4 days, MIA PaCa-2”, the inhibition at 10 µM was 0%.
Consider `COc1ccc(Cn2cnc(-c3nc(O)c4scc(-c5ccccn5)c4n3)c2)cc1` [drawing 541], for which the inhibition at 10 µM (2-4 days, MIA PaCa-2) fell in the range of 76 to 100%.
Consider `COc1ccc(-c2c(-c3cccc(OC)c3F)sc3nc(-c4nccn4C)nc(N4CCC(OC)C4)c23)cc1` (stereo not drawn) [drawing 584], for which the inhibition at 10 µM (2-4 days, MIA PaCa-2) is 76 to 100%.
In turn, `Cn1ccc(-c2sc3nc(-c4nccn4C)nc(N4CCC5(CCOC5)C4)c3c2-c2ccccc2)n1` (stereo not drawn) [drawing 551] yielded an IC50 (MIA PaCa-2) of over 1 µM. For the same compound, under “2-4 days, MIA PaCa-2”, the inhibition at 10 µM was 26 to 50%.
On to `CO[C@H]1C[C@@H](Nc2nc(-c3nccn3C)nc3sccc23)C1` [drawing 638], for which, for the setting “MIA PaCa-2 (Table 5A)”, the inhibition at 10 µM fell in the range of 26 to 50% and the IC50 is over 1 µM.
On the same counts, the results for `CO[C@H]1C[C@@H](Nc2nc(-c3nccn3C)nc3sc(C(=O)N4CCOCC4)c(-c4ccccc4)c23)C1` [drawing 657] are 26 to 50% and over 1 µM.
Consider `Oc1nc(-c2cn3cccnc3n2)nc2c(-c3ccccn3)csc12` [drawing 539], for which, under “2-4 days, MIA PaCa-2”, the inhibition at 10 µM worked out at 0%.
With `COCC1CN(c2nc(-c3nccn3C)nc3sc(-c4cccc(OC)c4F)c(-c4ccc(OC)cc4)c23)C1` [drawing 585], the inhibition at 10 µM (2-4 days, MIA PaCa-2) was 76 to 100%.
